{
  "source": "paper PMC10745061",
  "about": "(Marine Drugs, 2023)",
  "key": {"[1]": {"conditions": "25% human serum in PBS pH 7.4, 37 °C; for a/b (%), ratio of the peptide forms in serum: RP-HPLC, ratio estimated from MALDI-TOF MS, two independent experiments"}, "E. coli MDR CI 1057": {"tested_on": "E. coli MDR CI 1057", "conditions": "37 °C", "protocol": "Resistance induction experiments were performed using the previously described method. Briefly, on day one, the overnight culture of wild-type bacteria was diluted with the 2× MH broth supplemented with 1.8% NaCl to reach a final cell concentration of 10^6 CFU/mL."}, "[2]": {"tested_on": "human red blood cells (hRBCs)", "assay": "Hemolysis, hemoglobin release assay", "type": "cell-based", "conditions": "hemoglobin release assay, 2 h incubation, two independent donors", "protocol": "Figure 3 Biological activity of the peptides towards human cells. (A) Hemolytic effect on human red blood cells (hRBCs) after 2 h incubation (the hemoglobin release assay). (B) Cytotoxicity towards transformed human embryonic kidney cells (HEK293T) after 16 h incubation (the resazurin assay).\nThe hemolytic activity of the peptides was tested against the fresh suspension of human red blood cells (hRBC) using the hemoglobin release assay, as described previously. Two experiments were performed with hRBC from blood samples of independent donors. The quantitative data are represented as average means with standard deviations. The cytotoxic effect of the peptides was tested on transformed human embryonic kidney cells (HEK293T) using the resazurin assay. The technique is based on the ability of live cell dehydrogenases to reduce a blue resazurin to pink and fluorescent resorufin. A total of 10^4 cells per well in Dulbecco’s modified Eagle’s medium (DMEM/F12) supplemented with 10% FBS were placed into 96-well plates for 24 h in the CO2-incubator (5% CO2, 37 °C). […] Fluorescence of the formed resorufin was measured with the microplate reader AF2200 (Eppendorf, Germany) using the following channel: λExc = 535 nm, λEm = 595 nm. The fluorescence signal in the wells containing cells cultured without the peptides was assumed to represent 100% cell viability. […]"}},
  "note": "Like-named read-outs stand apart in the source and are kept apart here. Where a SMILES comes first, the peptide text is derived from it. Bridges are numbered along the chain shown (N, C = ends).",
  "data": [
    {"compound": "CC[C@H](C)[C@@H]1NC(=O)[C@H](Cc2c[nH]c3ccccc23)NC(=O)[C@H](C(C)C)NC(=O)[C@@H]2CSSC[C@H](NC(=O)[C@H](CCCNC(=N)N)NC(=O)[C@H](CCCNC(=N)N)NC(=O)[C@H](C(C)C)NC(=O)[C@H](CCCNC(=N)N)NC(=O)[C@H](CCCNC(=N)N)NC(=O)CNC(=O)[C@H](CC(N)=O)NC(=O)[C@H](C(C)C)NC(=O)[C@H](CO)NC1=O)C(=O)N[C@@H](Cc1c[nH]c3ccccc13)C(=O)NCC(=O)N[C@@H](CO)C(=O)NCC(=O)N[C@H](C(=O)O)CSSC[C@H](NC(=O)CNC(=O)[C@H](CCCNC(=N)N)NC(=O)[C@@H]1CCCN1C(=O)[C@@H](N)CO)C(=O)N[C@@H](Cc1ccccc1)C(=O)N2", "note": "[HfBRI-25] (H-SPRGCFCVWISVNGRRVRRCWGSGC-OH; disulfide 5-25, 7-20; N-terminus and C-terminus assumed)", "values": [
      {"measurement": "Part of the peptide converted into 23-residue form b", "setting": "[1]; after 1 h of incubation", "result": "More than half"},
      {"measurement": "Two active forms (a/b) remained intact in serum", "setting": "[1]; after 24 h, RP-HPLC peak area, mean of two independent experiments", "result": "more than 80%"},
      {"measurement": "a/b (%), ratio of the peptide forms in serum", "setting": "[1]; time 1 h", "result": 39, "unit": "%"},
      {"measurement": "a/b (%), ratio of the peptide forms in serum", "setting": "[1]; time 3 h", "result": 6, "unit": "%"},
      {"measurement": "a/b (%), ratio of the peptide forms in serum", "setting": "[1]; time 24 h", "result": 0, "unit": "%"},
      {"measurement": "Change of MIC value after resistance selection", "setting": "E. coli MDR CI 1057; 21 passages (days) in the presence of the agent, MHB + 0.9% NaCl", "result": "two-fold"},
      {"measurement": "Initial MIC value before resistance selection", "setting": "E. coli MDR CI 1057; Mueller–Hinton broth supplemented with 0.9% NaCl", "result": 1, "unit": "µM"},
      {"measurement": "Hemolytic effect on human red blood cells", "setting": "[2]", "result": "absence of hemolytic and cytotoxic properties"}
    ]}
  ]
}
